In patent publication US20150087627A1, “COMBINATION OF KINASE INHIBITORS AND USES THEREOF” (Intellikine LLC, priority 2011, published 2015):

How the values were obtained:
Type in all cases: biochemical
[1] = molecular target: T1, PI3K γ (p110γ) (Homo sapiens, UniProt P48736); test: PI 3-Kinase (human) HTRF assay, PI3K γ; conditions: read-out: PI3K γ IC50
T1 construct: purchased Upstate / Millipore Corporation

[2] = molecular target: T2, PI3K δ (Homo sapiens, UniProt O00329); test: PI 3-Kinase (human) HTRF assay, PI3K δ; conditions: read-out: PI3K δ IC50
T2 construct: purchased Upstate / Millipore Corporation
T2 sequence (O00329 whole entry): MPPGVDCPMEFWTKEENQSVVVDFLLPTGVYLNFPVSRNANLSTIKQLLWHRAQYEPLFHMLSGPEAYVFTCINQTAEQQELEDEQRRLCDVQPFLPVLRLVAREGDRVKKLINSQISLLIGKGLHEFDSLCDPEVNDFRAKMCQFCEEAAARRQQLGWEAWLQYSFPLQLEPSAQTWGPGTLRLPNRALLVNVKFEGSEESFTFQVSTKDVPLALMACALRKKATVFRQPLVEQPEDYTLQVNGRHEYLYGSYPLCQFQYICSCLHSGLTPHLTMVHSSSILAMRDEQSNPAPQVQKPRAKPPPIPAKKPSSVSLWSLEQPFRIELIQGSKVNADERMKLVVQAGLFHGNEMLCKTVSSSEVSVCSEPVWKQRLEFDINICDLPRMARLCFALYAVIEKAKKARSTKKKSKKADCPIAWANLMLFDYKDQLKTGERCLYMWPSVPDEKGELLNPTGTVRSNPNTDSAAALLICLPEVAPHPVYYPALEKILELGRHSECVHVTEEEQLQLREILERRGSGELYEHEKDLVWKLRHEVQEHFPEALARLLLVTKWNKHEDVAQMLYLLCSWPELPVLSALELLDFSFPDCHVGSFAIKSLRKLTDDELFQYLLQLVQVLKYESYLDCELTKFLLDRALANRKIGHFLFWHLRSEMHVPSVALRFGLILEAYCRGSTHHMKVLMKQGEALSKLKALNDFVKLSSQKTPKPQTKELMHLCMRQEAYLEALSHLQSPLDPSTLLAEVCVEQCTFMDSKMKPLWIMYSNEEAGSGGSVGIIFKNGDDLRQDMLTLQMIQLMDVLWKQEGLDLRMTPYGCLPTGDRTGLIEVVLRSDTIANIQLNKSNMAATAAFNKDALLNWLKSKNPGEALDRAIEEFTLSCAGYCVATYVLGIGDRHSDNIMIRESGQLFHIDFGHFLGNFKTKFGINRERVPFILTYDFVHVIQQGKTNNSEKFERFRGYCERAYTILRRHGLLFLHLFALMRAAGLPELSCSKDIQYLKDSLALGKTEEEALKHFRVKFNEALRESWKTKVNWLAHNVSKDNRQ
T2 sequence (P27986 whole entry partner): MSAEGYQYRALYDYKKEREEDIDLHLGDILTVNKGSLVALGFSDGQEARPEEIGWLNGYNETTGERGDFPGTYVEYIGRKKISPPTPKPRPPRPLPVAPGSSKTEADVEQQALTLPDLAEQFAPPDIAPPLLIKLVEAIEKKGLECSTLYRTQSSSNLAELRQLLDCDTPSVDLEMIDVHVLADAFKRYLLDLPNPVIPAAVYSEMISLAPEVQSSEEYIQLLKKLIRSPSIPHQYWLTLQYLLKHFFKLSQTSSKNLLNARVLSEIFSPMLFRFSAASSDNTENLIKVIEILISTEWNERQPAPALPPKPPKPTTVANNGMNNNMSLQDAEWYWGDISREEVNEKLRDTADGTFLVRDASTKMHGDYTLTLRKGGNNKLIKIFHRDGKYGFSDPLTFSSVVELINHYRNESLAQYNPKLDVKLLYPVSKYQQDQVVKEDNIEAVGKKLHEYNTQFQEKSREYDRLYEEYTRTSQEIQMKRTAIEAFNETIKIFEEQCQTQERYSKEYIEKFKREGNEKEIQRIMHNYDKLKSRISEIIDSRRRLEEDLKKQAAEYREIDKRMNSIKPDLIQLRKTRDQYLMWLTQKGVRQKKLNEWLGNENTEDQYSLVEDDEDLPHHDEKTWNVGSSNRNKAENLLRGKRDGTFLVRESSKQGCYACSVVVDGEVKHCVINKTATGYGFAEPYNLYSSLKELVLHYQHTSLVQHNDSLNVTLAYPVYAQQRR
Experimental: Briefly, the assay is a time resolved FRET assay that indirectly measures PIP3 product formed by the activity of a PI3-K. The kinase reaction is performed in a microtiter plate (e.g., a 384 well microtiter plate). The total reaction volume is approximately 20 ul per well. In the first step, each well receives 2 ul of test compound in 20% dimethylsulphoxide resulting in a 2% DMSO final concentration. […] The plate is sealed and incubated for 15 minutes at room temperature. […] The plate is sealed and incubated for 1 hour at room temperature. The reaction is stopped by adding 5 ul of Stop Solution per well and then 5 ul of Detection Mix is added per well. The plate is sealed, incubated for 1 hour at room temperature, and then read on an appropriate plate reader. Data is analyzed and IC50s are generated using GraphPad Prism 5.

[3] = molecular target: T3, PI3K β (p110β/p85α) (Homo sapiens, UniProt P42338); test: PI 3-Kinase (human) HTRF assay, PI3K β; conditions: read-out: PI3K β IC50
T3 construct: purchased Upstate / Millipore Corporation
T3 sequence (P42338 whole entry): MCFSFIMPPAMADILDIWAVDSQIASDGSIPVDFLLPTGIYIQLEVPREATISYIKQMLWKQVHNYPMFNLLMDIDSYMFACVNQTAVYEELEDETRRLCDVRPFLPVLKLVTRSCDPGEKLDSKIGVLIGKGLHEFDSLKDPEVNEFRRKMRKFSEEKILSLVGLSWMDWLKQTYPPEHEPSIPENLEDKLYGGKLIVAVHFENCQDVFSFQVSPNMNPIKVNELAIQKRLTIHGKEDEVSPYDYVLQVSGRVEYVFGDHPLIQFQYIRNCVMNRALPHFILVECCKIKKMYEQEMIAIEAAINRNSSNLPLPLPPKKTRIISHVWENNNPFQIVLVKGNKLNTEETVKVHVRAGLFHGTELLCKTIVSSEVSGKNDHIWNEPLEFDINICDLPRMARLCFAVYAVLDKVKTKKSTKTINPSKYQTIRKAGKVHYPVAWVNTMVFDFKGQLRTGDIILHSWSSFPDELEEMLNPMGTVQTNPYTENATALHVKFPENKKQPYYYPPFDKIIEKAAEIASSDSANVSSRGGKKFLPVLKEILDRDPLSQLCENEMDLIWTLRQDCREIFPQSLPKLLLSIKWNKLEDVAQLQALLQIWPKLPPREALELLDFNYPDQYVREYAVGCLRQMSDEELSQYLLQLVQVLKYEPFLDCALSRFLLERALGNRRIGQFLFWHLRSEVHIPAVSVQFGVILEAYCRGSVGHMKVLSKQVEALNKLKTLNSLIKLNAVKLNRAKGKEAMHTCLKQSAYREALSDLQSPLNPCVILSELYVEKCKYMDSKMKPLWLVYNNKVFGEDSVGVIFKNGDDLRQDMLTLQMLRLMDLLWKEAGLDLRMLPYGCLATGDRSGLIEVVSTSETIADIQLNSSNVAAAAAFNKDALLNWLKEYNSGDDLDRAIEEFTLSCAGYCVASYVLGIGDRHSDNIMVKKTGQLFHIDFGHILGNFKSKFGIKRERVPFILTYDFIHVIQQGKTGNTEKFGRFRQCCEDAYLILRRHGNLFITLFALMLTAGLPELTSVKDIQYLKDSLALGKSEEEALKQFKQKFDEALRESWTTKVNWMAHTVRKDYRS
T3 sequence (P27986 whole entry partner): as the sequence (P27986 whole entry partner) above

[4] = molecular target: T4, PI3K α (p110α/p85α) (Homo sapiens, UniProt P42336); test: PI 3-Kinase (human) HTRF assay, PI3K α; conditions: read-out: PI3K α IC50
T4 construct: purchased Upstate / Millipore Corporation
T4 sequence (P42336 whole entry): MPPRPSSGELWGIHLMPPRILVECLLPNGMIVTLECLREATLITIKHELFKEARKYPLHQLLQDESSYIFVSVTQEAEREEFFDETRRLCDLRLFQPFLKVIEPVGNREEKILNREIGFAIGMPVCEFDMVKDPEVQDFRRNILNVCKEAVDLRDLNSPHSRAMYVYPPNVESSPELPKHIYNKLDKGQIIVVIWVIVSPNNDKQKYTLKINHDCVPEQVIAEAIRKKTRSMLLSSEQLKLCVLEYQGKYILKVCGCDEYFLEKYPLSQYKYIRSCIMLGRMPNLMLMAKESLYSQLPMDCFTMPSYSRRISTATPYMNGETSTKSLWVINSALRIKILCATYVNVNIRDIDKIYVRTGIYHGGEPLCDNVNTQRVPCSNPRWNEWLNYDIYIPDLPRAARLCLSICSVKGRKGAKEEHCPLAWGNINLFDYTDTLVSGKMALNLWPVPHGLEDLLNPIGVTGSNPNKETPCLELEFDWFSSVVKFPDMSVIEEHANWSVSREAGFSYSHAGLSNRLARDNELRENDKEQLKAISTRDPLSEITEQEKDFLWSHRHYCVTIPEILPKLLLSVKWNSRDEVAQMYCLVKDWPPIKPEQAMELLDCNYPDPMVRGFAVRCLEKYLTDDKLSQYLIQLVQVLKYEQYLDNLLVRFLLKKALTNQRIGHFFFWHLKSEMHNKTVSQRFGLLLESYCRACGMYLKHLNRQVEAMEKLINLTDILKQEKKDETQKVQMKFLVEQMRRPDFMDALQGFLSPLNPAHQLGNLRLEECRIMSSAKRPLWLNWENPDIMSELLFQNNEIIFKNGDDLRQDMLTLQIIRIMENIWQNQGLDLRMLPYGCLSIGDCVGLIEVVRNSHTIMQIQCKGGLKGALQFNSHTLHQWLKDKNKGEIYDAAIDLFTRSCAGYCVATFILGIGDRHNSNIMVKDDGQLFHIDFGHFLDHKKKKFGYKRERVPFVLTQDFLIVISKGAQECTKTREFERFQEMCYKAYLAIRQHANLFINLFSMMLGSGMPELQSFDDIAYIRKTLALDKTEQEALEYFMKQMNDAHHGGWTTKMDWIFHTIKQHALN
T4 sequence (P27986 whole entry partner): as the sequence (P27986 whole entry partner) above

T1 sequence (P48736 whole entry): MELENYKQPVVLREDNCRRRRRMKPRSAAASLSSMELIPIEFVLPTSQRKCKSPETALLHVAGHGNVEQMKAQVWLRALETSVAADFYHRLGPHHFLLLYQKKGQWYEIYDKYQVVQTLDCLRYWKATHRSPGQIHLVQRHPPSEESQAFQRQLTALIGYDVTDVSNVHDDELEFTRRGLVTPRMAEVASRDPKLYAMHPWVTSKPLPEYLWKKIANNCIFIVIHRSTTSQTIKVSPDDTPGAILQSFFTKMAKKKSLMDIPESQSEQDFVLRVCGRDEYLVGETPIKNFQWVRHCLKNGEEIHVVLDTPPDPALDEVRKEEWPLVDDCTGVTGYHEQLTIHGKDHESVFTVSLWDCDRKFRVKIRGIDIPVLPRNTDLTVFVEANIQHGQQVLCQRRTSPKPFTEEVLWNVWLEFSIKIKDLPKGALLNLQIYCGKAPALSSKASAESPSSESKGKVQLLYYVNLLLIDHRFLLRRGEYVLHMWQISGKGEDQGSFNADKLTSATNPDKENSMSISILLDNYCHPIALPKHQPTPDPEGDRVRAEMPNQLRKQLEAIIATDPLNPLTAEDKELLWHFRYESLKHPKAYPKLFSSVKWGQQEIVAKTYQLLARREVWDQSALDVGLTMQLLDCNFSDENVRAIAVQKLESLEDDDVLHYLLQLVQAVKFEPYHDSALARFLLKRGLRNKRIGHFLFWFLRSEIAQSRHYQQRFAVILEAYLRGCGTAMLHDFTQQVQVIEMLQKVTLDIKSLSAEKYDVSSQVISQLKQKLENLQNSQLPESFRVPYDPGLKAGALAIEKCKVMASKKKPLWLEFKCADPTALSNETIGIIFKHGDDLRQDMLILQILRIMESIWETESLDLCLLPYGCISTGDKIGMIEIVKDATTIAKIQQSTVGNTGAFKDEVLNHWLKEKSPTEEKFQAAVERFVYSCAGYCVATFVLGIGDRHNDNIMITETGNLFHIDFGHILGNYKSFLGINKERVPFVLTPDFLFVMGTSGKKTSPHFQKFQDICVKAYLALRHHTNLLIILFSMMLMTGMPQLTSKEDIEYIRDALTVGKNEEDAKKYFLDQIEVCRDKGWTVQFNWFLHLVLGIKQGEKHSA

| Structure (SMILES) | IC50 [1] [µM] | IC50 [2] [µM] | IC50 [3] [µM] | IC50 [4] [nM] |
| --- | --- | --- | --- | --- |
| CN(C)CCn1cnc2ccc(-c3ccc4oc(N)nc4c3)cc2c1=O [Compound 292] | > 10 | > 10 | > 10 | < 10000 |
| Nc1nc2cc(-c3ccc4ncc(C(=O)NCCCN5CCCC5)n4c3)ccc2o1 [Compound 293] | < 1 | < 0.1 | < 1 | < 100 |
| CCN(CC)CCNC(=O)c1cnc2ccc(-c3ccc4oc(N)nc4c3)cn12 [Compound 295] | < 1 | < 1 | < 1 | < 1000 |
| Cc1ccn(C2CCN(C(=O)c3cnc4ccc(-c5ccc6oc(N)nc6c5)cn34)CC2)n1 [Compound 297] | < 10 | > 10 | > 10 | < 1000 |
| Nc1nc2cc(-c3ccc4ncc(N5CCN(C(=O)[C@H](N)CO)CC5)nc4c3)ccc2o1 [Compound 299] | < 0.1 | < 0.1 | < 1 | < 100 |
| Nc1nc2ccc(-c3ccc4nnc(-c5cccnc5)n4c3)cc2o1 [Compound 301] | > 10 | > 10 | < 10 | < 10000 |
| CCN(CC)CCCNC(=O)c1cnc2ccc(-c3ccc4oc(N)nc4c3)cn12 [Compound 302] | < 10 | < 0.1 | < 10 | < 1000 |
| Nc1nc2ccc(-c3ccc4nnc(C(=O)N5CCCC5)n4c3)cc2o1 [Compound 305] | > 10 | > 10 | > 10 | < 10000 |
| C[C@H]1CN(c2cnc3ccc(-c4ccc5sc(N)nc5c4)cc3n2)CCN1 [Compound 307] | > 10 | > 10 | < 1 | < 1000 |
| C[C@H]1CN(c2cnc3ccc(-c4ccc5nc(N)oc5c4)cc3n2)CCN1 [Compound 309] | < 10 | > 10 | < 1 | < 1000 |
| C[C@H]1CN(c2cnc3ccc(-c4cccc5nc(N)oc45)cc3n2)CCN1 [Compound 310] | > 10 | > 10 | > 10 | > 10000 |
| Cc1nc(NC(=O)N2CCC[C@H]2C(N)=O)sc1-c1ccc2oc(N)nc2c1 [Compound 311] | > 10 | > 10 | > 10 | < 1000 |
| CC(=O)Nc1nc(C)c(-c2ccc3oc(N)nc3c2)s1 [Compound 312] | < 0.1 | < 1 | < 10 | < 1000 |
| Nc1nc2cc(-c3ccc4ncc(N5CC(N6CCCC6)C5)nc4c3)ccc2o1 [Compound 314] | < 10 | < 10 | < 10 | < 1000 |
| Nc1nc2cc(-c3ccc4ncc(C(=O)N(CCO)CCO)n4c3)ccc2o1 [Compound 316] | < 10 | > 10 | < 10 | < 1000 |
| Nc1nc2cc(-c3ccc4ncn(C(=O)N5CCOCC5)c4c3)ccc2o1 [Compound 317] | > 10 | > 10 | > 10 | > 10000 |
| Nc1nc2cc(-c3ccc4ncc(N5CC(n6ccnc6)C5)nc4c3)ccc2o1 [Compound 319] | < 1 | < 10 | < 1 | < 100 |
| Nc1nc2cc(-c3ccc4ncc(N5CC(N6CCS(=O)(=O)CC6)C5)nc4c3)ccc2o1 [Compound 334] | < 10 | < 10 | < 10 | < 100 |
| Nc1nc2cc(-c3ccc4ncc(N5CCC(n6cccn6)CC5)nc4c3)ccc2o1 [Compound 337] | < 1 | > 10 | > 10 | < 100 |
| Cc1cn(C2CCN(c3cnc4ccc(-c5ccc6oc(N)nc6c5)cc4n3)CC2)cn1 [Compound 338] | < 10 | < 10 | < 10 | < 100 |
| Cc1cn(C2CN(c3cnc4ccc(-c5ccc6oc(N)nc6c5)cc4n3)C2)cn1 [Compound 339] | < 1 | < 1 | < 1 | < 100 |
| Nc1nc2cc(-c3ccc4ncc(C(=O)N5CC5)n4c3)ccc2o1 [Compound 340] | < 1 | > 10 | > 10 | < 1000 |
| Nc1nc2cc(-c3ccc4ncc(N5CC(N6CCC(O)CC6)C5)nc4c3)ccc2o1 [Compound 341] | < 10 | < 10 | > 10 | < 1000 |
| Cc1nccn1C1CCN(c2cnc3ccc(-c4ccc5oc(N)nc5c4)cc3n2)CC1 [Compound 344] | < 10 | < 1 | < 10 | < 100 |
| Nc1nc2cc(-c3ccn4ncc(C(=O)N5CCOCC5)c4c3)ccc2o1 [Compound 347] | < 1 | > 10 | < 10 | < 1000 |

| Structure (SMILES) | IC50 [1] [µM] | IC50 [2] [µM] | IC50 [3] [µM] | IC50 [4] [nM] |
| --- | --- | --- | --- | --- |
| Cc1cc2oc(N)nc2cc1-c1ccc2ncc(N3CCN[C@@H](C)C3)nc2c1 [Compound 351] | > 10 | > 10 | < 1 | < 10000 |
| C[C@@H]1CN(C2CN(c3cnc4ccc(-c5ccc6oc(N)nc6c5)cc4n3)C2)CCN1 [Compound 355] | < 10 | < 1 | < 10 | < 100 |
| Nc1nc2cc(-c3ccn4ncc(-c5ccncc5)c4c3)ccc2o1 [Compound 356] | < 0.1 | < 0.1 | < 0.1 | < 100 |
| Nc1nc2cc(-c3ccc4ncc(C(=O)N5CCOCC5)n4c3)cc(Cl)c2o1 [Compound 359] | < 0.1 | < 10 | < 1 | < 100 |
| Nc1nc2cc(-c3ccc4ncc(C(=O)N5CCOCC5)n4c3)cc(F)c2o1 [Compound 360] | < 0.1 | < 10 | < 1 | < 100 |
| Nc1nc2cc(-c3ccc4ncc(N5CC(N6CCOCC6)C5)nc4c3)cc(F)c2o1 [Compound 361] | < 1 | < 10 | < 1 | < 100 |
| Cc1c(-c2ccc3ncc(N4CC(N5CCOCC5)C4)nc3c2)ccc2oc(N)nc12 [Compound 362] | > 10 | > 10 | > 10 | > 10000 |
| C[C@H]1CN(c2cnc3ccc(-c4cccc5c(N)noc45)cc3n2)CCN1 [Compound 363] | > 10 | > 10 | > 10 | > 10000 |
| Cc1cc(-c2ccc3ncc(C(=O)N4CCOCC4)n3c2)cc2nc(N)oc12 [Compound 364] | < 1 | > 10 | < 10 | < 1000 |
| Cc1cc(-c2ccc3ncc(N4CC(N5CCOCC5)C4)nc3c2)cc2nc(N)oc12 [Compound 365] | < 10 | < 10 | < 10 | < 10000 |
| CN(C)C1CN(c2cnc3ccc(-c4ccc5oc(N)nc5c4)cc3n2)C1 [Compound 366] | < 10 | > 10 | < 10 | < 100 |
| Nc1nc2cc(-c3ccc4ncc(N5CC(N)C5)nc4c3)ccc2o1 [Compound 367] | < 1 | < 10 | < 1 | < 1000 |
| Cc1cc(-c2ccc3oc(N)nc3c2)cc2c(C(=O)N3CCCC3)cnn12 [Compound 368] | < 1 | < 1 | < 10 | < 100 |
| Cc1c(-c2ccc3ncc(C(=O)N4CCOCC4)n3c2)ccc2oc(N)nc12 [Compound 369] | > 10 | > 10 | > 10 | > 10000 |
| Nc1nc2cc(-c3ccc4ncc(N5CC(N6CCOCC6)C5)nc4c3)c(Cl)cc2o1 [Compound 371] | > 10 | > 10 | < 10 | < 1000 |
| Cc1c(-c2ccc3oc(N)nc3c2)ccc2ncc(N3CCN[C@@H](C)C3)nc12 [Compound 374] | > 10 | < 10 | < 0.1 | < 1000 |
| Nc1nc2cc(-c3ccc4ncc(N5CC[C@H](N6CCOCC6)C5)nc4c3)ccc2o1 [Compound 375] | < 1 | < 1 | < 10 | < 1000 |
| CN1CCN(C(=O)c2cnn3ccc(-c4ccc5oc(N)nc5c4)cc23)CC1 [Compound 380] | < 10 | > 10 | < 10 | < 1000 |
| Cc1c(-c2ccc3oc(N)nc3c2)ccc2ncc(N3CC(N4CCOCC4)C3)nc12 [Compound 383] | > 10 | > 10 | > 10 | < 1000 |
| CN1CCC(c2cnc3ccc(-c4ccc5oc(N)nc5c4)cc3n2)CC1 [Compound 385] | > 10 | > 10 | < 10 | < 100 |
| Nc1nc2cc(-c3ccc4ncc(N5CCNCC5=O)nc4c3)ccc2o1 [Compound 389] | < 10 | > 10 | > 10 | < 1000 |
| CCN1CCN(c2cnc3ccc(-c4ccc5oc(N)nc5c4)cc3n2)C(=O)C1 [Compound 391] | > 10 | > 10 | > 10 | < 10000 |
| CC(C)N1CCN(c2cnc3ccc(-c4ccc5oc(N)nc5c4)cc3n2)C(=O)C1 [Compound 392] | > 10 | > 10 | > 10 | > 10000 |
| Nc1nc2cc(-c3ccc4ncc(N5CCN(CC6CC6)CC5=O)nc4c3)ccc2o1 [Compound 393] | > 10 | > 10 | > 10 | < 10000 |
| Nc1nc2cc(-c3ccc4ncc(N5CCn6cncc6C5)nc4c3)ccc2o1 [Compound 394] | < 0.1 | < 1 | < 0.1 | < 100 |
